Measurements taken from patent publication US12583871B2, “PRMT5 inhibitors” (MERCK SHARP & DOHME LLC, priority 2019, dated 2026).
Where two headings read alike, the source gives them in different places.

Columns and labels:
[1] = molecular target: T1, PRMT5 (symmetric dimethylation of arginine (SDMA) of PRMT5 substrates) in MCF-7 cells (Homo sapiens, UniProt O14744); test: PRMT5 Cell Target Engagement (TE) Assay; format: cell-based; settings: 3 days treatment, nuclear SDMA by high content imaging
T1 construct: endogenous in cells; host or cells: MCF-7 cells
T1 sequence (O14744 whole entry): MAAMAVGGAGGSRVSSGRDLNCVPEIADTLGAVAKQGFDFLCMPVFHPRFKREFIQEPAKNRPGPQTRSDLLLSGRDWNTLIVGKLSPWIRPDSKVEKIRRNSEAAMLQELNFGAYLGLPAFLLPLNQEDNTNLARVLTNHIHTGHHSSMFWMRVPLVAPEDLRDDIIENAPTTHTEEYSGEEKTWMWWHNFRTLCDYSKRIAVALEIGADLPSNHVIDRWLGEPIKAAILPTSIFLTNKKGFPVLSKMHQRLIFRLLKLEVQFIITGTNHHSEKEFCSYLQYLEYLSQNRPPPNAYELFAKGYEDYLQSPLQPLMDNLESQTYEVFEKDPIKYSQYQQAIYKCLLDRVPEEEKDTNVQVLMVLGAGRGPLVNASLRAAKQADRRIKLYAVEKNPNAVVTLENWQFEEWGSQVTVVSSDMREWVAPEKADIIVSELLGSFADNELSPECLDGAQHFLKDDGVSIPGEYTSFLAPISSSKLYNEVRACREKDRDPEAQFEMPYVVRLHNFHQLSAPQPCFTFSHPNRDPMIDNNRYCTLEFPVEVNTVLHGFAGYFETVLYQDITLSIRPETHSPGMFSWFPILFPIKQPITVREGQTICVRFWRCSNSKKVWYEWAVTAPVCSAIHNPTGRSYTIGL
T1 sequence (Q9BQA1 whole entry partner): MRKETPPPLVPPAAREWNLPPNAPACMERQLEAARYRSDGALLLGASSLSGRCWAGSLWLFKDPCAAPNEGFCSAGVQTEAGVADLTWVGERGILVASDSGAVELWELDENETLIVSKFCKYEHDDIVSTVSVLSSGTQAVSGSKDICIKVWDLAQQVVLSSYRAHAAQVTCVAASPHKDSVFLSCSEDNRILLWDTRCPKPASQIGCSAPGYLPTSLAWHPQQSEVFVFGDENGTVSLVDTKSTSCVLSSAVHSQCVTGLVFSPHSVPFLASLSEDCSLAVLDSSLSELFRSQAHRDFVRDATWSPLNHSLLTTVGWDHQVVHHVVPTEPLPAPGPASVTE
From the text: PRMT5 Cell Target Engagement (TE) Assay
The PRMT5 TE assay is a biomarker assay for identifying compounds that inhibit symmetric dimethylation of arginine (SDMA) of PRMT5 substrates. The following substrates have been reported for PRMT5: histone H2A and H4 R3, Histone H3 R2, Histone H3 R8, spliceosome Sm proteins, ribosomal protein RPS10, p53, FEN1, nucleoplasmin, nucleolin, EGFR and EBNA. The assay focuses on detecting symmetrically dimethylated nuclear proteins using high content imaging technology. Detection of the expression of symmetrically dimethylated nuclear proteins is through a mixture of primary rabbit monoclonal antibodies to SDMA (CST 13222), which in turn recognized by an Alexafluor 488 dye-conjugated anti-rabbit IgG secondary antibody. The IN Cell Analyzer 2200 or Opera-Phenix measures nuclear Alexafluor 488 fluorescent dye intensity that is directly related to the level of expression of symmetrically dimethylated nuclear proteins at the single cell level. Nuclear AF488 dye intensities are compared to the mean value for DMSO treated cells (MIN) to report percent of inhibition for each compound-treated well.
In this assay, the cell potency (EC50) of each compound was determined from a ten point (1:3 serial dilution; top compound concentration of 10000 nM) titration curve using the following outlined procedure. Each well of a BD falcon collagen coated black/clear bottom 384-well plate was seeded with 4000 MCF-7 cells in 30 μl media and allowed to attach for 5 h. Media is ATCC-formulated Eagle's Minimum Essential Medium, Catalog No. 30-2003. To make the complete growth medium, the following components were added to the base medium: 0.01 mg/mL human recombinant insulin; fetal bovine serum to a final concentration of 10%. Additional 30 μl of media containing 2× compounds were added to each well. Cells were treated for 3 days in 37° C. CO2 incubator. On day 3, cells were fixed with Cytofix, permeablized with 0.4% Triton-X-100/Cytofix, and washed with D-PBS without Ca/Mg. Cells were blocked with Licor Odessey blocking reagent for 1 h at room temperature, followed by incubation with anti-SDMA (1:1000) antibody at 4° C. overnight. 1° antibody was removed, followed by three washings with DPBS without Ca/Mg and 0.05% Tween20. Hoechst (5 μg/mL), Cell Mask deep stain (1:2000) and Alexa488-conjugated goat anti-rabbit IgG (2 μg/mL) was added for 1 h at room temperature. A final washing step (three washes) was performed before sealing plate for imaging on In Cell Analyzer 2200 or Opera-Phenix. Images from analyzer were uploaded to Columbus (at WP or BOS) for image analysis. IC50 values were determined by 4 parameters robust fit of percent fluorescence units vs. (Log10) compound concentrations.

[2] = molecular target: T2, PRMT5-MEP50 enzyme complex (Homo sapiens, UniProt O14744); test: PRMT5-MEP50 Enzyme Methylation Assay; format: biochemical; settings: recombinant FL-PRMT5-MEP50, biotinylated H4R3(Me1) peptide, 15 μM SAM
T2 construct: 1.25 nM of Full-length (FL)-PRMT5-MEP50 enzyme complex; made in house; host or cells: baculovirus-transfected Sf21 cells
T2 sequence (O14744 whole entry): as the sequence (O14744 whole entry) above
T2 sequence (Q9BQA1 whole entry partner): as the sequence (Q9BQA1 whole entry partner) above
Procedure: PRMT5-MEP50 Enzyme Methylation Assay
PRMT5-MEP50 biochemical assay is a direct measurement of the methylation activity of the enzyme complex on a short peptide substrate derived from the N-terminus of H4 histone. Methylation experiment was performed with recombinant PRMT5-MEP50 protein complex. The assessment of inhibitory effect of small molecules was measured by the effectiveness of the compounds to inhibit this reaction (EC50).
In this assay, the potency (EC50) of each compound was determined from a twenty-point (1:2 serial dilution; top compound concentration of 100000 nM) titration curve using the following outlined procedure. To each well of a white ProxiPlus 384 well-plate, 100 nL of compound (1% DMSO in final assay volume of 10 μL) was dispensed, followed by the addition of 8 μL of 1× assay buffer (50 mM Bicine pH 8.0, 1 mM DTT, 0.004% Tween20, 0.01% BSA) containing 1.25 nM of Full-length (FL)-PRMT5-MEP50 enzyme complex (recombinant proteins from baculovirus-transfected Sf21 cells: FL-PRMT5; MW=[…] and FL-MEP50; MW=38614) and 1 μL of 150 μM S-(5′-Adenosyl)-L-Methionine Chloride (SAM). Plates were sealed and placed in a 37° C. humidified chamber for a 60 minutes pre-incubation with compound. Subsequently, each reaction was initiated by the addition of 1 μL 1× assay buffer containing 750 nM biotinylated H4R3(Me1) peptide. The final reaction in each well of 10 μL consists of 1.0 nM PRMT5-MEP50, 75 nM biotinylated-peptide, and 15 μM SAM. Methylation reactions were allowed to proceed for 150 minutes in a sealed plate at 37° C. Reactions were immediately quenched by the addition of 1 μL of 5% formic acid. Plates were then frozen and shipped to SAMDI™ Tech Inc. to determine the percent conversion from H4R3(Me1) to H4R3(Me2). Dose-response curves were generated by plotting percent effect (% product conversion; Y-axis) vs. Log 10 compound concentrations (X-axis). EC50 values were determined by non-linear regression according to models for sigmoidal (4 parameters) dose-response curves.

[3] = only EC50 (4 parameters single site sigmoidal model) or first EC50 of 7 parameters biphasic model, read-out: Enzyme Methylation Assay (EC50)
[4] = second EC50 of 7 parameters biphasic model, read-out: Enzyme Methylation Assay (EC50, nM), second EC50

Compound | EC50 [1] [nM] | EC50 [2, 3] [nM] | EC50 [2, 4] [nM]
COCc1cc(C(F)(F)F)cn2cc(C(=O)N3CC[C@]4(Cc5ccccc5CN4)[C@H](O)C3)nc12 [Example 1, ((3R,3′R)-3′-hydroxy-1,4-dihydro-1′H,2H-spiro[isoquinoline-3,4′-piperidin]-1′-yl)[8-(methoxymethyl)-6-(trifluoromethyl)imidazo[1,2-a]pyridin-2-yl]methanone] | 6.23 | 0.525 | 224
Cc1nc2nc(C(=O)N3CC[C@]4(Cc5ccccc5CN4)[C@H](O)C3)cn2cc1Br [Example 4, (6-bromo-7-methylimidazo[1,2-a]pyrimidin-2-yl)[(3R,3′R)-3′-hydroxy-1,4-dihydro-1′H,2H-spiro[isoquinoline-3,4′-piperidin]-1′-yl]methanone] | 14 | 0.652 | 280
O=C(c1cn2cc(C3CC3)cnc2n1)N1CC[C@]2(Cc3ccccc3CN2)[C@H](O)C1 [Example 5, (6-cyclopropylimidazo[1,2-a]pyrimidin-2-yl)[(3R,3′R)-3′-hydroxy-1,4-dihydro-1′H,2H-spiro[isoquinoline-3,4′-piperidin]-1′-yl]methanone] | 4.42 | 0.216 | 72.4

Stronger by EC50 [1], values ahead:

EC50 [1] [nM] | EC50 [2, 3] [nM] | EC50 [2, 4] [nM] | Compound
2.11 | 0.369 | 114 | CO[C@@H](C)c1cc(Br)cn2cc(C(=O)N3CC[C@]4(Cc5ccccc5CN4)[C@H](O)C3)nc12 (single isomer, unassigned) [Example 2]
1.57 | 0.581 | – | CO[C@H](C)c1cc(Br)cn2cc(C(=O)N3CC[C@]4(Cc5ccccc5CN4)[C@H](O)C3)nc12 (single isomer, unassigned) [Example 3]
